# From the supplement of paper PMC10307832
# Legend:
# Assay in all cases: relative viability (nuclei count vs DMSO), 5 days (fraction); higher = more cells survive
# [1] = test system: ABC-1
# Outline: (§1)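 Each reported value is a median over duplicate plates. It expresses relative viability: treated-well nuclei count divided by vehicle-well nuclei count. Lung cancer cell lines in 1536-well plates were dosed by pin tool a day after seeding, alone with one drug or with a fixed anchor-drug dose plus five library-drug doses (not always all listed) in √10 steps, and nuclei were counted after 5 days.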
# [2] = test system: COR-L23
# Outline: as §1
# [3] = test system: EPLC-272H
# Outline: as §1
# [4] = test system: HARA
# Outline: as §1
# [5] = test system: HCC-15
# Outline: as §1
# [6] = test system: HCC-78
# Outline: as §1
# [7] = test system: LC-2-ad
# Outline: as §1
# [8] = test system: LU99A
# Outline: as §1
# [9] = test system: NCI-H1651
# Outline: as §1
# [10] = test system: NCI-H1915
# Outline: as §1
# [11] = test system: NCI-H1993
# Outline: as §1
# [12] = test system: NCI-H2009
# Outline: as §1
# [13] = test system: NCI-H2085
# Outline: as §1
# [14] = test system: NCI-H2126
# Outline: as §1
# [15] = test system: NCI-H2342
# Outline: as §1
# [16] = test system: NCI-H2347
# Outline: as §1
# [17] = test system: NCI-H358
# Outline: as §1
# [18] = test system: NCI-H460
# Outline: as §1
# [19] = test system: NCI-H522
# Outline: as §1
# [20] = test system: NCI-H650
# Outline: as §1
# [21] = test system: NCI-H838
# Outline: as §1
# [22] = test system: PC-14
# Outline: as §1
# [23] = test system: SW 1573
# Outline: as §1
# [24] = test system: UMC-11
# Outline: as §1
structure (smiles),measurement,setting,value
COc1cc(N2CCC(C(N)=O)CC2)ccc1Nc1nc(N)c(Cl)c(Nc2ccccc2S(=O)(=O)C(C)C)n1 [HG-5-88-01] + Cc1nc(Nc2ncc(C(=O)Nc3c(C)cccc3Cl)s2)cc(N2CCN(CCO)CC2)n1 [Dasatinib] (partner 0.075 µM),relative viability,[1]; first compound 0.04 µM,0.5
same,relative viability,[1]; first compound 0.1265 µM,0.583
same,relative viability,[1]; first compound 0.4 µM,0.389
same,relative viability,[1]; first compound 1.265 µM,0.457
same,relative viability,[1]; first compound 4 µM,0.304
same,relative viability,[2]; first compound 0.04 µM,0.536
same,relative viability,[2]; first compound 0.1265 µM,0.465
same,relative viability,[2]; first compound 0.4 µM,0.436
same,relative viability,[2]; first compound 1.265 µM,0.374
same,relative viability,[2]; first compound 4 µM,0.169
same,relative viability,[3]; first compound 0.04 µM,0.49
same,relative viability,[3]; first compound 0.1265 µM,0.31
same,relative viability,[3]; first compound 0.4 µM,0.226
same,relative viability,[3]; first compound 1.265 µM,0.121
same,relative viability,[3]; first compound 4 µM,0.0712
same,relative viability,[4]; first compound 0.04 µM,0.25
same,relative viability,[4]; first compound 0.1265 µM,0.255
same,relative viability,[4]; first compound 0.4 µM,0.147
same,relative viability,[4]; first compound 1.265 µM,0.113
same,relative viability,[4]; first compound 4 µM,0.219
same,relative viability,[5]; first compound 0.04 µM,0.669
same,relative viability,[5]; first compound 0.1265 µM,0.59
same,relative viability,[5]; first compound 0.4 µM,0.416
same,relative viability,[5]; first compound 1.265 µM,0.397
same,relative viability,[5]; first compound 4 µM,0.347
same,relative viability,[6]; first compound 0.04 µM,0.356
same,relative viability,[6]; first compound 0.1265 µM,0.286
same,relative viability,[6]; first compound 0.4 µM,0.22
same,relative viability,[6]; first compound 1.265 µM,0.197
same,relative viability,[6]; first compound 4 µM,0.174
same,relative viability,[7]; first compound 0.04 µM,0.633
same,relative viability,[7]; first compound 0.1265 µM,0.469
same,relative viability,[7]; first compound 0.4 µM,0.261
same,relative viability,[7]; first compound 1.265 µM,0.287
same,relative viability,[7]; first compound 4 µM,0.205
same,relative viability,[8]; first compound 0.04 µM,0.592
same,relative viability,[8]; first compound 0.1265 µM,0.496
same,relative viability,[8]; first compound 0.4 µM,0.434
same,relative viability,[8]; first compound 1.265 µM,0.21
same,relative viability,[8]; first compound 4 µM,0.237
same,relative viability,[9]; first compound 0.04 µM,0.368
same,relative viability,[9]; first compound 0.1265 µM,0.619
same,relative viability,[9]; first compound 0.4 µM,0.375
same,relative viability,[9]; first compound 1.265 µM,0.249
same,relative viability,[9]; first compound 4 µM,0.246
same,relative viability,[10]; first compound 0.04 µM,0.347
same,relative viability,[10]; first compound 0.1265 µM,0.316
same,relative viability,[10]; first compound 0.4 µM,0.295
same,relative viability,[10]; first compound 1.265 µM,0.314
same,relative viability,[10]; first compound 4 µM,0.239
same,relative viability,[11]; first compound 0.04 µM,0.633
same,relative viability,[11]; first compound 0.1265 µM,0.569
same,relative viability,[11]; first compound 0.4 µM,0.502
same,relative viability,[11]; first compound 1.265 µM,0.475
same,relative viability,[11]; first compound 4 µM,0.581
same,relative viability,[12]; first compound 0.04 µM,0.26
same,relative viability,[12]; first compound 0.1265 µM,0.251
same,relative viability,[12]; first compound 0.4 µM,0.161
same,relative viability,[12]; first compound 1.265 µM,0.141
same,relative viability,[12]; first compound 4 µM,0.156
same,relative viability,[13]; first compound 0.04 µM,0.296
same,relative viability,[13]; first compound 0.1265 µM,0.242
same,relative viability,[13]; first compound 0.4 µM,0.24
same,relative viability,[13]; first compound 1.265 µM,0.186
same,relative viability,[13]; first compound 4 µM,0.163
same,relative viability,[14]; first compound 0.04 µM,0.617
same,relative viability,[14]; first compound 0.1265 µM,0.565
same,relative viability,[14]; first compound 0.4 µM,0.449
same,relative viability,[14]; first compound 1.265 µM,0.34
same,relative viability,[14]; first compound 4 µM,0.259
same,relative viability,[15]; first compound 0.04 µM,0.281
same,relative viability,[15]; first compound 0.1265 µM,0.336
same,relative viability,[15]; first compound 0.4 µM,0.308
same,relative viability,[15]; first compound 1.265 µM,0.307
same,relative viability,[15]; first compound 4 µM,0.268
same,relative viability,[16]; first compound 0.04 µM,0.267
same,relative viability,[16]; first compound 0.1265 µM,0.319
same,relative viability,[16]; first compound 0.4 µM,0.318
same,relative viability,[16]; first compound 1.265 µM,0.303
same,relative viability,[16]; first compound 4 µM,0.295
same,relative viability,[17]; first compound 0.04 µM,0.142
same,relative viability,[17]; first compound 0.1265 µM,0.153
same,relative viability,[17]; first compound 0.4 µM,0.164
same,relative viability,[17]; first compound 1.265 µM,0.11
same,relative viability,[17]; first compound 4 µM,0.138
same,relative viability,[18]; first compound 0.04 µM,0.481
same,relative viability,[18]; first compound 0.1265 µM,0.56
same,relative viability,[18]; first compound 0.4 µM,0.316
same,relative viability,[18]; first compound 1.265 µM,0.255
same,relative viability,[18]; first compound 4 µM,0.0831
same,relative viability,[19]; first compound 0.04 µM,1.02
same,relative viability,[19]; first compound 0.1265 µM,0.897
same,relative viability,[19]; first compound 0.4 µM,0.813
same,relative viability,[19]; first compound 1.265 µM,0.781
same,relative viability,[19]; first compound 4 µM,0.849
same,relative viability,[20]; first compound 0.04 µM,0.441
same,relative viability,[20]; first compound 0.1265 µM,0.46
same,relative viability,[20]; first compound 0.4 µM,0.378
same,relative viability,[20]; first compound 1.265 µM,0.391
same,relative viability,[20]; first compound 4 µM,0.304
same,relative viability,[21]; first compound 0.04 µM,0.266
same,relative viability,[21]; first compound 0.1265 µM,0.279
same,relative viability,[21]; first compound 0.4 µM,0.233
same,relative viability,[21]; first compound 1.265 µM,0.251
same,relative viability,[21]; first compound 4 µM,0.181
same,relative viability,[22]; first compound 0.04 µM,0.234
same,relative viability,[22]; first compound 0.1265 µM,0.185
same,relative viability,[22]; first compound 0.4 µM,0.0685
same,relative viability,[22]; first compound 1.265 µM,0.0374
same,relative viability,[22]; first compound 4 µM,0.0307
same,relative viability,[23]; first compound 0.04 µM,0.425
same,relative viability,[23]; first compound 0.1265 µM,0.426
same,relative viability,[23]; first compound 0.4 µM,0.353
same,relative viability,[23]; first compound 1.265 µM,0.279
same,relative viability,[23]; first compound 4 µM,0.266
same,relative viability,[24]; first compound 0.04 µM,0.434
same,relative viability,[24]; first compound 0.1265 µM,0.449
same,relative viability,[24]; first compound 1.265 µM,0.469
same,relative viability,[24]; first compound 4 µM,0.409
